Data on 15 molecules can be found in US10407428B2, “Spiro-isoquinoline-1,4′-piperidine compounds having multimodal activity against pain” (ESTEVE PHARMACEUTICALS, S.A., priority 2014, dated 2019).

Each structure is given as a SMILES string. Like-named read-outs stand apart in the source and are kept apart here. Bounds are passed on as bounds.

This experiment has as its target human σ1 receptor and human μ-opioid receptor. Briefly: Human σ1 receptor radioligand assay and human μ-opioid receptor radioligand assay (μ and σ1 dual binding). Further details: key to μ and σ1 dual binding: +: Both Ki-μ and Ki-σ1>=500 nM; ++: One Ki<500 nM while the other Ki is >=500 nM; +++: Both Ki-μ and Ki-σ1<500 nM; ++++: Both Ki-μ and Ki-σ1<100 nM.
The mark [1] stands for this setting: combined class for Ki-μ ([3H]-DAMGO, CHO-K1 membranes) and Ki-σ1 ([3H](+)-pentazocine, HEK-293 membranes).

What is called Ki is a measure of affinity in units of concentration, obtained from inhibition or displacement. Take `CN1CCc2ccccc2C12CCN(CCc1cccc(NS(C)(=O)=O)c1)CC2` [Example 118, N-(3-(2-(2-Methyl-3,4-dihydro-2H-spiro[isoquinoline-1,4′-piperidin]-1′-yl)ethyl)phenyl)methanesulfonamide]: the Ki was under 100 nM.

As to `CC(=O)N1CCc2ccccc2C12CCN(CCN(C)C(=O)OC(C)(C)C)CC2` [Example 46, tert-Butyl 2-(2-acetyl-3,4-dihydro-2H-spiro[isoquinoline-1,4′-piperidine]-1′-yl)ethyl(methyl)carbamate], the Ki under setting [1] was at least 500 nM.

On to `CN1CCc2ccccc2C12CCN(CC(=O)N1CCC(F)(F)CC1)CC2` [Example 61, 1-(4,4-difluoropiperidin-1-yl)-2-(2-methyl-3,4-dihydro-2H-spiro[isoquinoline-1,4′-piperidine]-1′-yl)ethanone], for which the Ki is under 500 nM.

`O=C(CN1CCC2(CC1)c1ccccc1CCN2CC(F)(F)F)N1CCCCC1` [Example 135, 1-(piperidin-1-yl)-2-(2-(2,2,2-trifluoroethyl)-3,4-dihydro-2H-spiro[isoquinoline-1,4′-piperidine]-1′-yl)ethanone]: the “μ and σ1 dual binding” value is “++”.

On to `CC(=O)N1CCc2ccccc2C12CCN(CCOc1cccnc1)CC2` [Example 43, 1-(1′-(2-(pyridin-3-yloxy)ethyl)-3,4-dihydro-2H-spiro[isoquinoline-1,4′-piperidine]-2-yl)ethanone], for which the “μ and σ1 dual binding” value is listed as “++”.

For `COCCN(C(=O)CN1CCC2(CC1)c1ccccc1CCN2C)C(C)C` [Example 108, N-isopropyl-N-(2-methoxyethyl)-2-(2-methyl-3,4-dihydro-2H-spiro[isoquinoline-1,4′-piperidine]-1′-yl)acetamide], the “μ and σ1 dual binding” value is reported as “++”.

The molecule `OCCN1CCc2ccccc2C12CCN(CCc1cncc(F)c1)CC2` [Example 127, 2-(1′-(2-(5-fluoropyridin-3-yl)ethyl)-3,4-dihydro-2H-spiro[isoquinoline-1,4′-piperidin]-2-yl)etanol] came in with a Ki of under 500 nM.

In turn, `CN1CCc2ccccc2C12CCN(C[C@H](O)c1ccncc1)CC2` [Example 99, (R)-2-(2-methyl-3,4-dihydro-2H-spiro[isoquinoline-1,4′-piperidine]-1′-yl)-1-(pyridin-4-yl)ethanol] registered a Ki of under 500 nM.

In turn, `OCCN1CCc2ccccc2C12CCN(CCc1ccncc1F)CC2` [Example 130, 2-(1′-(2-(3-Fluoropyridin-4-yl)ethyl)-3,4-dihydro-2H-spiro[isoquinoline-1,4′-piperidine]-2-yl)ethanol] came in with a Ki of under 500 nM.

Take `CC(C)N(C(=O)CN1CCC2(CC1)c1ccccc1CCN2C)C(C)C` [Example 102, N,N-diisopropyl-2-(2-methyl-3,4-dihydro-2H-spiro[isoquinoline-1,4′-piperidine]-1′-yl)acetamide]: the “μ and σ1 dual binding” value was “++”.

In the case of `CCN1CCc2ccccc2C12CCN(CC(=O)N(C)C)CC2` [Example 153, 2-(2-ethyl-3,4-dihydro-2H-spiro[isoquinoline-1,4′-piperidine]-1′-yl)-N,N-dimethylacetamide], the “μ and σ1 dual binding” value is “++”.

As to `CN1CCc2ccccc2C12CCN(CCc1cccc([N+](=O)[O-])c1)CC2` [Example 85, 2-methyl-1′-(3-nitrophenethyl)-3,4-dihydro-2H-spiro[isoquinoline-1,4′-piperidine]], the Ki under setting [1] is at least 500 nM.

Molecule `OCCN1CCc2ccccc2C12CCN(CCc1cncc(C(F)(F)F)c1)CC2` [Example 128, 2-(1′-(2-(5-(trifluoromethyl)pyridin-3-yl)ethyl)-3,4-dihydro-2H-spiro[isoquinoline-1,4′-piperidine]-2-yl)ethanol] returned a Ki of under 500 nM.

For the molecule `CC(=O)N1CCc2ccccc2C12CCN(CC1CC1)CC2` [Example 33, 1-(1′-(Cyclopropylmethyl)-3,4-dihydro-2H-spiro[isoquinoline-1,4′-piperidine]-2-yl)ethanone], the Ki under setting [1] was at least 500 nM.

For the molecule `CN1CCc2ccccc2C12CCN(Cc1ccncc1)CC2` [Example 83, 2-methyl-1′-(pyridin-4-ylmethyl)-3,4-dihydro-2H-spiro[isoquinoline-1,4′-piperidine]], the “μ and σ1 dual binding” value is “++”.
